Read-outs that look alike come from different tables or passages of the source. Where no end group is shown, it is not given here.
Experiments:
[1] = test system: normal human CD34 positive cells containing hematopoeitic progenitors (HSC); settings: 24 h exposure
tumor cell lines [2] = test system: tumor cell lines
Protocol: (§2) The cells cultured in RPMI media and 10% fetal calf serum were treated with various concentrations of SEQ ID NO: 3 or SEQ ID NO: 19 at various concentrations for 24 hours and cell viability was determined using Vi-CELL automated cell counter.

tumor cell lines [3] = assay: Cell viability after 24 h treatment (Vi-CELL automated cell counter); settings: RPMI media and 10% fetal calf serum
Protocol: as §2

[4] = Tolerability in tumor-bearing nude mice; type: in vivo; settings: 60 mg/kg dose; all animals recovered quickly
Protocol: (§1) Nude mice bearing the H-69 small cell carcinoma xenografts were treated with PEP-2 encapsulated in PEGylated liposomes as previously described. Female mice (20-22 g) were inoculated […] with 10 million tumor cells suspended in 50 uL of PBS and an equal volume of matrigel. When the tumors were approximately 50 mm 3, the animals were randomized into groups of 6 and either treated with 0.06 ml of empty PEGylated liposomes, or 0.03 ml of PEGylated liposomes (30 mg/kg of PEP-2) or 0.06 ml of PEGylated liposomes (60 mg/kg of PEP-2), every 4 days. Tumor size (FIG. 10) and animal weight (FIG. 11) was measured every three days. […] Treatment of mice bearing advanced Tumors (FIG. 12) and mice with advanced tumors tolerate the encapsulated PEP-2 liposome treatment (FIG. 13).

[5] = test system: H-69 small cell carcinoma xenografts; assay: H-69 xenograft tumor size in nude mice; type: in vivo; settings: 30 or 60 mg/kg of PEP-2 in PEGylated liposomes, every 4 days
Protocol: as §1

Compound: CC[C@H](C)[C@H](NC(=O)[C@H](CCCCN)NC(=O)[C@@H](NC(=O)[C@H](CCC(N)=O)NC(=O)[C@@H](N)CCCNC(=N)N)[C@@H](C)CC)C(=O)N[C@@H](Cc1c[nH]c2ccccc12)C(=O)N[C@@H](Cc1ccccc1)C(=O)N[C@@H](CCC(N)=O)C(=O)N[C@@H](CC(N)=O)C(=O)N[C@@H](CCCNC(=N)N)C(=O)N[C@@H](CCCNC(=N)N)C(=O)N[C@@H](CCSC)C(=O)N[C@@H](CCCCN)C(=O)N[C@@H](Cc1c[nH]c2ccccc12)C(=O)N[C@@H](CCCCN)C(=O)N[C@@H](CCCCN)C(=O)N[C@@H](Cc1c[nH]cn1)C(=O)N[C@@H](Cc1c[nH]cn1)C(=O)N[C@@H](Cc1c[nH]cn1)C(=O)N[C@@H](CCCNC(=N)N)C(=O)N[C@@H](CC(C)C)C(=O)N[C@@H](CO)C(=O)N[C@@H](Cc1c[nH]cn1)C(=O)O [SEQ ID NO: 3]
- IC50 [1]: > 80 µM
- growth inhibition / cytotoxicity in tumor cell lines (tumor cell lines [2]): cytotoxic to most, but not all, tumor cell lines

Compound: CC[C@H](C)[C@H](NC(=O)[C@H](CCCCN)NC(=O)[C@@H](NC(=O)[C@H](CCC(N)=O)NC(=O)[C@@H](N)CCCNC(=N)N)[C@@H](C)CC)C(=O)N[C@@H](Cc1c[nH]c2ccccc12)C(=O)N[C@@H](Cc1ccccc1)C(=O)N[C@@H](CCC(N)=O)C(=O)N[C@@H](CC(N)=O)C(=O)N[C@@H](CCCNC(=N)N)C(=O)N[C@@H](CCCNC(=N)N)C(=O)N[C@@H](CCSC)C(=O)N[C@@H](CCCCN)C(=O)N[C@@H](Cc1c[nH]c2ccccc12)C(=O)N[C@@H](CCCCN)C(=O)N[C@@H](CCCCN)C(=O)N[C@@H](C)C(=O)N[C@@H](C)C(=O)N[C@@H](C)C(=O)N[C@H](C(=O)N[C@@H](CC(C)C)C(=O)N[C@@H](CO)C(=O)N[C@@H](C)C(=O)O)C(C)C [SEQ ID NO: 19, reference compound]
- growth inhibition / cytotoxicity in tumor cell lines (tumor cell lines [2]): little or no effect on cell growth

Compound: HHHRLSH [SEQ ID NO: 1, HHHRLSH]
- growth inhibition / cytotoxicity in tumor cell lines (tumor cell lines [3]): did not inhibit growth

Compound: RQIKIWFQNRRIKWKKHHHRLSH (penetratin) [SEQ ID NO: 34]
- acute adverse effect [4]: acute transient distress
- tumor size [5]: Decreases the Size of Tumors

— US9314497B2, “E2F as a target of hormone refractory prostate cancer” (RUTGERS, THE STATE UNIVERSITY OF NEW JERSEY, priority 2009, dated 2016)
